Here are results for 26 compounds from patent US8779144B2, “Bicycloheteroaryl compounds as P2X7 modulators and uses thereof” (Evotec (US) Inc., priority 2006, dated 2014).

Series [1] is described as follows: Half-life in human liver microsomes (HLM). The class given is in vitro ADME. The conditions noted are these: 1 μM compound, 0.78 mg/mL HLM, NADPH, pH 7.4, 37° C. Background: Microsomes from liver hold many membrane-bound enzymes, among them those of drug oxidation.
Procedure: Test compounds (1 μM) are incubated with 3.3 mM MgCl2 and 0.78 mg/mL HLM (HL101) in 100 mM potassium phosphate buffer (pH 7.4) at 37° C. on the 96-deep well plate. The reaction mixture is split into two groups, a non-P450 and a P450 group. NADPH is only added to the reaction mixture of the P450 group. An aliquot of samples of P450 group is collected at 0, 10, 30, and 60 min time point, where 0 min time point indicated the time when NADPH is added into the reaction mixture of P450 group. An aliquot of samples of non-P450 group is collected at −10 and 65 min time point. Collected aliquots are extracted with acetonitrile solution containing an internal standard. The precipitated protein is spun down in centrifuge (2000 rpm, 15 min). The compound concentration in supernatant is measured by LC/MS/MS system.
The half-life value is obtained by plotting the natural logarithm of the peak area ratio of compounds/internal standard versus time. The slope of the line of best fit through the points yields the rate of metabolism (k). This is converted to a half-life value using following equations: Half-life=ln 2/k
Series [2] deals with IL-1β release from THP-1 cells. Kind of series: IL-1β release assay in differentiated THP-1 cells stimulated with BzATP (ELISA). Conditions: Homo sapiens; for inhibition at 0.3 µM: 0.3 uM compound, BzATP 250 uM, read-out: IL-1β % Inhib. @ 0.3 uM.; for IC50: released IL-1β as in Example 9, four parameter logistic fit, read-out: IL-Iβ IC50. The class given is cell-based. The method, then:
THP-1 cells (ATCC Cat #285-IF-100) are plated in 96 well plates at a concentration of 200,000 cells per well and allowed to differentiate in RPMI-1640 media (ATCC Cat #30-2001) containing 10% FBS, 100 IU/mL penicillin, 100 ug/mL streptomycin, 100 ng/mL LPS and 100 ng/mL IFN-γ for 16 hours. Following differentiation, the cells are treated for an additional 2 hours in RPMI-1640 media containing 100 IU/mL penicillin, 100 ug/mL streptomycin and fresh LPS at 100 ng/mL. The cells are then pretreated for 30 minutes with the compound of interest at the appropriate concentration in RPMI media containing 100 IU/mL penicillin, 100 ug/mL streptomycin. Following the pretreatment 2′,3′-O-(4-benzoylbenzoyl)-adenosine 5′-triphosphate (Sigma Aldrich Cat # B6396) is added to a final concentration of 250 uM and the cells are incubated for an additional 45 minutes. 30 uL of cell supernatant is then collected and IL-113 levels determined via ELISA (R&D systems Cat. # HSLB50) according to manufacturer's recommendations using the Tecan Safire plate reader. Background adjusted IL-1β levels of drug treated and non-treated cells are used to calculate the percent inhibition. […]
The compounds set forth in Table 1 were tested for activity in a cellular model as described herein. Specifically, cells were pretreated with differing amounts of the compound under test and released IL-1β determined as in Example 9, above. Measurements were made and IC50 values, presented in Table 2, below, were determined by fitting the data to a four parameter logistic equation using GraphPad Prism software (GraphPad Software, Inc). The equation may be expressed by the following formula: Y=Bottom+(Top−Bottom)/(1+10^((LogEC50−X)*HillSlope)) Where X is the logarithm of concentration, Y is the response and Y starts at Bottom and goes to Top with a sigmoid shape.

Structures are written as SMILES.

Usually half-life stands for the time in which the quantity being followed falls by half. Low values mean rapid decline, high ones slow decline. One may read the IC50 as the concentration that inhibits the measured activity by half.

Turning to `O=C(NCC12CC3CC(CC(C3)C1)C2)c1cccc2c(=O)[nH]ccc12` [Compound 2028, 1-Oxo-1,2-dihydro-isoquinoline-5-carboxylic acid (adamantan-1-ylmethyl)-amide], in series [1], the half-life at 1 μM was 18.6 min. Moreover, in series [2], the inhibition at 0.3 µM is more than 76% and the IC50 amounted to 0.73 nM.

`O=C(NCC1(O)CCCCCC1)c1cccc2c(=O)[nH]ccc12` [Compound 2030]: in series [1], the half-life at 1 μM was 23.4 min. Also, in series [2], the inhibition at 0.3 µM was 51 to 75% and the IC50 turned out to be 79 nM.

In turn, `Cn1ccc2c(C(=O)NCC3(O)CCCCCC3)cccc2c1=O` [Compound 2032] had a half-life at 1 μM in series [1] of 22.8 min. In series [2], the inhibition at 0.3 µM was more than 76% and the IC50 was determined as 48.6 nM.

In the case of `O=C(NCC1(O)CCCCCC1)c1cccc2c(=O)n(Cc3ccc4c(c3)OCCO4)ccc12` [Compound 2033, 2-(2,3-Dihydro-benzo[1,4]dioxin-6-ylmethyl)-1-oxo-1,2-dihydro-isoquinoline-5-carboxylic acid (1-hydroxy-cycloheptylmethyl)-amide], the half-life at 1 μM in series [1] is 13.8 min. Further, in series [2], the inhibition at 0.3 µM is more than 76% and the IC50 is 1.37 nM.

On to `O=C(NCC1(O)CCCCCC1)c1cccc2c(=O)n(CC3CCOCC3)ccc12` [Compound 2034], for which, in series [1], the half-life at 1 μM is 15.6 min. Moreover, in series [2], the inhibition at 0.3 µM lay in the range of 51 to 75% and the IC50 amounted to 133 nM.

In the case of `CC(C)C(CO)n1ccc2c(C(=O)NCC3(O)CCCCCC3)cccc2c1=O` (stereo not drawn) [Compound 2035, 2-(1-Hydroxymethyl-2-methyl-propyl)-1-oxo-1,2-dihydro-isoquinoline-5-carboxylic acid (1-hydroxy-cycloheptylmethyl)-amide], the half-life at 1 μM in series [1] was 38.4 min. In addition, in series [2], the inhibition at 0.3 µM is more than 76% and the IC50 worked out at 5.66 nM.

Compound `O=C(NCC1CCCCCC1)c1cccc2c(=O)n(C(CO)CO)ccc12` [Compound 2040] had a half-life at 1 μM in series [1] of 51 min. Besides, in series [2], the inhibition at 0.3 µM was more than 76% and the IC50 was 39.2 nM.

For `O=C(NCC1CCCCCC1)c1cccc2c(=O)n(CCO)ccc12` [Compound 2041, 2-(2-Hydroxy-ethyl)-1-oxo-1,2-dihydro-isoquinoline-5-carboxylic acid cycloheptylmethyl-amide], the half-life at 1 μM in series [1] is 18 min. In series [2], the inhibition at 0.3 µM is more than 76% and the IC50 stood at 54 nM.

In series [1], `CC1(C)CCCC(O)(CNC(=O)c2cccc3c(=O)n(C(CO)CO)ccc23)C1` (stereo not drawn) [Compound 2043] showed a half-life at 1 μM of 38.4 min. Also, in series [2], the inhibition at 0.3 µM is more than 76% and the IC50 stood at 23 nM.

Regarding `O=C(NCC1(O)CCCCCC1)c1cccc2c(=O)n(C(CO)CO)ccc12` [Compound 2047], the half-life at 1 μM in series [1] is 31.8 min. For the same compound, in series [2], the inhibition at 0.3 µM fell in the range of 26 to 50% and the IC50 was 573 nM.

Compound `O=C(NCC1(O)CCCCCC1)c1cccc2c(=O)n(CCO)ccc12` [Compound 2048, 2-(2-Hydroxy-ethyl)-1-oxo-1,2-dihydro-isoquinoline-5-carboxylic acid (1-hydroxy-cycloheptylmethyl)-amide] showed a half-life at 1 μM in series [1] of 42.6 min. In series [2], the inhibition at 0.3 µM was 26 to 50% and the IC50 turned out to be 326 nM.

The compound `C[C@H](C(N)=O)n1ccc2c(C(=O)NCC3CCCCCC3)cccc2c1=O` [Compound 2062] showed a half-life at 1 μM in series [1] of 36 min. In series [2], the inhibition at 0.3 µM was more than 76% and the IC50 turned out to be 7.46 nM.

`C[C@@H](C(N)=O)n1ccc2c(C(=O)NCC3CCCCCC3)cccc2c1=O` [Compound 2063] showed a half-life at 1 μM in series [1] of 66 min. Also, in series [2], the inhibition at 0.3 µM is more than 76% and the IC50 was found to be 17.3 nM.

On to `C[C@H](C(N)=O)n1ccc2c(C(=O)NCC34CC5CC(CC(C5)C3)C4)cccc2c1=O` [Compound 2064, 2-((R)-1-Carbamoyl-ethyl)-1-oxo-1,2-dihydro-isoquinoline-5-carboxylic acid (adamantan-1-ylmethyl)-amide], for which the half-life at 1 μM in series [1] was 19.2 min. Further, in series [2], the inhibition at 0.3 µM was more than 76% and the IC50 amounted to 0.15 nM.

Consider `O=C(NCC1CCCCCC1)c1cccc2c(=O)n(C3CC3)ccc12` [Compound 2070, 2-Cyclopropyl-1-oxo-1,2-dihydro-isoquinoline-5-carboxylic acid cycloheptylmethyl-amide], for which, in series [2], the inhibition at 0.3 µM was more than 76% and the IC50 was determined as 16.5 nM.

As for `O=C(NCc1ccc(C(F)(F)F)cc1)c1cccc2c(=O)n(C3CC3)ccc12` [Compound 2071], in series [2], the inhibition at 0.3 µM lay within 0 to 25% and the IC50 was determined as 754 nM.

For `O=C(NCc1ccc(Cl)c(Cl)c1)c1cccc2c(=O)n(C3CC3)ccc12` [Compound 2072, 2-Cyclopropyl-1-oxo-1,2-dihydro-isoquinoline-5-carboxylic acid 3,4-dichloro-benzylamide], in series [2], the inhibition at 0.3 µM was more than 76% and the IC50 came to 59.2 nM.

For the compound `O=C(NCc1ccc(F)c(Cl)c1)c1cccc2c(=O)n(C3CC3)ccc12` [Compound 2073], in series [2], the inhibition at 0.3 µM is more than 76% and the IC50 came out at 152 nM.

Consider `O=C(NCc1ccc(Cl)c(F)c1)c1cccc2c(=O)n(C3CC3)ccc12` [Compound 2074], for which, in series [2], the inhibition at 0.3 µM was more than 76% and the IC50 came out at 107 nM.

Consider `O=C(NCc1ccc(F)c(C(F)(F)F)c1)c1cccc2c(=O)n(C3CC3)ccc12` [Compound 2075], for which, in series [2], the inhibition at 0.3 µM is more than 76% and the IC50 is 158 nM.

As for `O=C(NCc1ccc(C(F)(F)F)c(F)c1)c1cccc2c(=O)n(C3CC3)ccc12` [Compound 2076], in series [2], the inhibition at 0.3 µM was more than 76% and the IC50 worked out at 119 nM.

`O=C(NCc1cccc(C(F)(F)F)c1F)c1cccc2c(=O)n(C3CC3)ccc12` [Compound 2077]: in series [2], the inhibition at 0.3 µM was in the range of 51 to 75% and the IC50 was 162 nM.

On to `O=C(NCc1ccc(Cl)c(C(F)(F)F)c1)c1cccc2c(=O)n(C3CC3)ccc12` [Compound 2078], for which, in series [2], the inhibition at 0.3 µM is more than 76% and the IC50 is 59.4 nM.

Regarding `Cc1ccc2c(c1C(=O)NCc1ccc(C(F)(F)F)c(F)c1)CCN(C(=O)C1CC1)C2` [Compound 2080], in series [2], the inhibition at 0.3 µM lay in the range of 26 to 50% and the IC50 was 356 nM.

For `Cc1ccc2c(c1C(=O)NCc1ccc(C(F)(F)F)c(F)c1)CCN(C(=O)C1CCC1)C2` [Compound 2081], in series [2], the inhibition at 0.3 µM is more than 76% and the IC50 was 149 nM.

For `Cc1ccc2c(c1C(=O)NCc1ccc(C(F)(F)F)c(F)c1)CCN(C(=O)C1(C)CC1)C2` [Compound 2082], in series [2], the inhibition at 0.3 µM is 0 to 25% and the IC50 amounted to 667 nM.
